“And” between values parts separate entries of the source, which are not always exact repeats. Equal values may be shown once. “Also recorded” adds a separate entry of the source.
System: acute hyperactive bladder
Experiment: Continuous CMG, acute hyperactive bladder model with intravesical PS and KCl (Examples 7-8)
Type: in vivo, female Sprague-Dawley rats
Description: An animal model for acute hyperactive bladder in rats was developed using intravesical infusion of PS, an agent used to break down urothelial barrier function and physiological concentrations of KCl.
Continuous CMGs were performed in urethane-anesthetized female rats. The bladder was filled (0.04 ml/min) with normal saline followed by intravesical infusion for a 60 minute period with a test solution comprising either KCl (100 or 500 mM) or PS (10 or 30 mg/ml). Following this, 10 mg/ml PS treated animals were infused intravesically with 100, 300 or 500 mM KCl. Some animals were pretreated with capsaicin ([…], sc) four days before the experiments.
Animal Preparation. The study was performed on 40 female Sprague-Dawley rats weighing 250-300 gm. Animals were anesthetized with 1.2 gm/kg urethane injected subcutaneously. Body temperature was maintained in the physiological range using a heating lamp.
Cystometrogram (CMG). PE-50 tubing (Clay-Adams, Parsippany, N.J.) was inserted into the bladder through the urethra and connected via a three-way stopcock to a pressure transducer and to a syringe pump. This was used for recording intravesical pressure and for infusing solutions into the bladder. A control CMG was performed by slowly filling the bladder with saline (0.04 ml/min) to elicit repetitive voiding. The amplitude, PT, compliance and intercontraction interval (ICI) of reflex bladder contractions were recorded. Pressure threshold (PT) represents the pressure that induces the initial bladder contraction. PT often has been used as a parameter corresponding to afferent nerve activity for the induction of reflex bladder contractions. Measurements in each animal represented the average of 3 to 5 bladder contractions.
After performing control CMGs with saline infusion, three intravesical infusion experiments were performed in parallel: (1) infusion of KCl (100 or 500 mM in saline) for one hour (N=4 in each group); (2) infusion of PS (Sigma Chemical Co.; 30 mg/ml in saline) for one hour (N=6); and (3) infusion of PS (10 mg/ml) for one hour, followed by 100, 300 or 500 mM KCl for one hour (N=6, in each subgroup). In four animals, capsaicin dissolved in a vehicle containing 10% ethanol, 10% TWEEN®80 and 80% physiological saline, at a concentration of 20 mg/ml was given subcutaneously in divided doses on 2 consecutive days. The doses included 25 and 50 mg/kg at a 12-hour interval on the first day and 50 mg/kg on the second day, as previously described (C. L. Cheng et al., 1993, Am. J. Physiol. 265:R132-138). All injections were performed under halothane anesthesia. Four days after the last dosage of capsaicin, the animals were anesthetized and treated with intravesical administration of PS (10 mg/ml) for 1 hour followed by KCl (500 mM) infusion.
Suppression of Micturition Reflex. To evaluate the direct effects of potassium on detrusor muscle, micturition reflex was blocked in 4 animals by either intravenous hexamethonium injection (25 mg/kg) (N=2) or transection of bilateral pelvic nerves (N=2).
Statistical Analysis. Statistical analyses were performed using Student's t test for paired or unpaired data, as applicable, with p<0.05 considered significant. Quantitative data are expressed in Example 8 (below) as means plus or minus standard error.

[1] = 100 mM KCl alone, one hour, N=4
[2] = 100 mM KCl following 10 mg/ml PS, N=6
[3] = 300 mM KCl following 10 mg/ml PS, N=6
[4] = 300 mM KCl following PS 10 mg/ml
[5] = 500 mM KCl alone, one hour, N=4
[6] = 500 mM KCl following 10 mg/ml PS, N=6
[7] = 500 mM KCl following PS 10 mg/ml
[8] = KCl 500 mM 1 hr after one hour PS 10 mg/ml, capsaicin pretreated animals, N=4
[9] = KCl 500 mM 2 hr after one hour PS 10 mg/ml, capsaicin pretreated animals, N=4
[10] = KCl 500 mM following PS 10 mg/ml, micturition reflex suppressed animals
[11] = capsaicin pretreated animals, PS 10 mg/ml then KCl 500 mM, 2 hours of infusion

Work on `[Cl-].[K+]` [KCl] yielded an Amplitude [1] of 28.2 ± 0.5 cm H2O, a Compliance [1] of 0.205 ± 0.032 ml/cm H2O and an ICI [1] of 13.8 ± 2.0 min. The PT [1] was 5.9 ± 0.5 cm H2O, the Amplitude [2] was 28.2 ± 3.7 cm H2O and the Compliance [2] was 0.157 ± 0.022 ml/cm H2O. For the same compound, the ICI [2] was 18.8 ± 2.1 min, the PT [2] was 3.0 ± 1.3 cm H2O and the Amplitude [3] was 31.3 ± 0.7 cm H2O. It also gave a Compliance [3] of 0.066 ± 0.012 ml/cm H2O, an ICI [3] of 5.2 ± 1.7 min and a PT [3] of 3.3 ± 0.9 cm H2O. It also gave an ICI decrease [4] of 76.9%, a compliance decrease [4] of 60% and a contraction amplitude increase [4] of 23.7%. The “onset of irritation (delay)” value [4] was 20 to 30 min, the Amplitude [5] was 28.8 ± 1.2 cm H2O and the Compliance [5] was 0.237 ± 0.023 ml/cm H2O. It also gave an ICI [5] of 15.8 ± 2.4 min, a PT [5] of 8.2 ± 0.9 cm H2O and an Amplitude [6] of 29.5 ± 3.4 cm H2O. It also gave a Compliance [6] of 0.075 ± 0.009 ml/cm H2O, an ICI [6] of 3.2 ± 1.3 min and a PT [6] of 5.4 ± 1.0 cm H2O. For the same compound, the ICI decrease [7] was 82.9%, the compliance decrease [7] was 63.4% and the contraction amplitude increase [7] was 21.4%. For the same compound, the “onset of irritation (delay)” value [7] was 10 to 15 min, the “PT change” value (300 or 500 mM KCl following PS 10 mg/ml) was “not significantly altered” and the Amplitude [8] was 20.3 ± 0.3 cm H2O. It also gave a Compliance [8] of 0.218 ± 0.013 ml/cm H2O, an ICI [8] of 21.3 ± 2.8 min and a PT [8] of 5.8 ± 0.5 cm H2O. The Amplitude [9] was 16.0 ± 1.7 cm H2O, the Compliance [9] was 0.100 ml/cm H2O and 0.100 ± 0.016 ml/cm H2O and the ICI [9] was 13.1 ± 2.8 min. It also gave a PT [9] of 7.6 ± 1.7 cm H2O, a Compliance [10] of 0.041±0.011 ml/cm H2O and a compliance decrease [10] of 55.9%. The “detrusor muscle / bladder compliance” value [10] was “stimulated the detrusor muscle and decreased bladder compliance”, the “irritative effects / CMG parameters” value (KCl 100 or 500 mM alone) was “not observed; also recorded: not significantly different from those during saline administration” and the ICI decrease [11] was 36%. The compliance decrease [11] was 55%, the “bladder hyperactivity” value (high concentrations of KCl (300/500 mM) following one hour of PS 10 mg/ml) was “induced bladder hyperactivity (decrease ICI)” and the “CMG parameters” value (low concentration KCl (100 mM), one hour, following PS 10 mg/ml) was “did not produce significant changes in the CMG parameters; also recorded: had no effect”.

— US8110217B2, “Sphingomyelin liposomes for the treatment of hyperactive bladder disorders” (priority 2001, dated 2012)
